# Measurements published in patent US11571446B2, “Gut microbiota and treatment of cancer” (Sanford Burnham Prebys Medical Discovery Institute, priority 2016, dated 2023).
# Entries after “also recorded” stand apart in the source; their conditions may differ.
# Tests used:
# tumor growth [1] = experiment: Tumor growth in Rnf5−/− mice treated with chemical chaperone; type: in vivo, mouse; details: treatment to alleviate ER stress
# Description: To understand the mechanism by which altered function of Rnf5^−/− mice might influence the anti-tumor immune response, changes in the intestinal epithelial cells (IECs) were examined, which cells play critical roles in both innate and adaptive immunity.
# tumor growth [2] = experiment: Fecal microbiota analysis of Rnf5−/− and WT tumor bearing mice; type: in vivo, mouse; details: Rnf5−/− vs WT microbiota
# Protocol: The fecal microbiota of Rnf5^−/− and WT mice were analyzed. […] Of those, increased relative abundance of several bacterial taxa (including Bacteroides spp., B. acidifaciens, B. chinchilla, B. xylanisolvens, Parabacteroides merdae, Porphyromonas canis, Rickenella microfusus) and decreased abundance of others (including unclassified Bifidobacterium spp., B. choerinum, Odoribacter denticanis, Parabacteroides goldsteinii, unclassified Olivibacter, Parapedobacter koreensis) typified the microbiome of Rnf5^−/− mice bearing tumors, compared with the WT genotype.
# The fecal microbiota of Rnf5−/− and WT mice were further analyzed. Marked differences in the microbial profiles were observed, highlighting differences in community structure depicted in principle component analysis that distinctly segregated Rnf5^−/− from WT microbiota. Analysis of microbiota allowed the identification of 42 phylotypes that distinguished Rnf5^−/− and WT microbiota in tumor bearing mice (FIG. 7). These phylotypes are dominated by a few taxonomic groups, the largest of which fall into the Clostridium cluster (37%). All but four of these may be assigned to Clostrium cluster IV or XIVa, known to be capable of producing butyrate that may influence Foxp3^+ Treg cells expansion. […]
# MC-38 cells = experiment: Growth of MC-38 colon cancer tumors in C57BL/6 mice given mucin or inulin; type: in vivo, mouse
# Description: (§1) FIG. 6A depicts growth of SW1 TLR4-mutant tumor cells in C3H/HeJ TLR4 mutant mice provided with control diet, alone or with supplemented mucin or inulin starting 14 days prior to tumor inoculation (n=10). FIG. 6B depicts growth of MC-38 tumors in C57BL/6 mice (n=10) that received, starting 14 days prior to tumor inoculation, control diet, alone or with supplemented mucin or inulin. FIG. 6C depicts tumor volume in C57BL/6 mice (n=10 per group) injected (s.c.) with a melanoma cell line (N-Ras mutant; 1×10^6 cells). The mice were provided control or inulin or mucin supplemented diet. When tumors reached a volume of […], mice were treated with MEKi (PD325901) administered by gavage (10 mg/kg, daily), alone or in combination with inulin or mucin, as indicated. Tumor volume was assessed every 4 days.
# Next, it was determined whether mucin or inulin are also able to impact growth of colon cancer cells, representative of a different tumor type. Growth of MC-38 cells injected to WT mice was attenuated by inulin but not mucin (FIG. 6B). […] Corresponding increase in CD4, CD8, CD45 and DC, including pDC and mDC and MHC-I expression on DC, was identified in tumors subjected to the MEKi+inulin treatment.
# [3] = test system: tumor-infiltrating immune cells; experiment: Tumor-infiltrating immune cells and immune gene transcription in mucin- or inulin-fed mice; type: in vivo, mouse
# Description: To test this directly it was investigated whether administration of mucin to WT mice could phenocopy Rnf5^−/− mice, in terms of tumor growth, immune response and gut microbiota composition. […] This prompted us to use machine learning to identify phylotypes that best distinguished WT (non-attenuated tumor growth) from Rnf5^−/− and WT mice treated with mucin or inulin (attenuated tumor growth). […] The immune status of mucin and inulin-fed WT mice also shifted to resemble that of Rnf5′ mice.
# human fecal samples = experiment: Anaerobic cultivation of fecal samples with a sole carbohydrate source; type: cell-based; details: in vitro, unpublished results
# Description: (§2) FIG. 4A depicts plots of human fecal samples cultivated under anaerobic conditions in chemically defined medium with or without exogenous carbohydrate (n=6). Relative abundance of taxa encoding extensive glycosyl hydrolase activities. Cultures with no exogenous sugar were compared to cultures with N-acetyl-mannosamine, galactomannan and porcine gastric mucin. […] FIG. 4C depicts computer simulation identifies the uptake rates of mucin and inulin degradation products in the 2 media predicted to sustain the WT and Rnf5^−/− communities, showing higher predicted consumption of mucin and inulin products in the Rnf5^−/− community. FIG. 4D depicts YUMM1.5 tumor growth in WT or Rnf5^−/− mice provided with 0 or 3% mucin in drinking water starting 14 days prior to tumor inoculation (n=15). FIG. 4E depicts growth of Yumm1.5 tumors in WT or Rnf5^−/− received a control diet or a diet enriched 15% inulin 14 days prior to and during tumor inoculation (n=15). FIG. 4F depicts fold-changes of median abundances between Rnf5^−/−, mucin and inulin treated and WT mice, for 30 taxa that discriminate tumor attenuating and non-attenuating phenotypes.
# The differences in the gut microbiota of Rnf5^−/− and WT mice before and during tumor formation highlighted a functionally coherent group of species that define a food web enriched for species encoding extensive glycosyl hydrolase activities. […]
# SW1 cells = experiment: Growth of SW1 melanoma in TLR4 mutant C3H/HeJ mice given mucin or inulin; type: in vivo, mouse
# Description: as §1
# To determine whether TLR4, the receptor for bacterial lipopolysaccharides, might be involved in the mucin-induced anti-tumor immune phenotype, the growth of mouse melanoma SW1 cells was examined in Tlr4^−/− C3H/HeJ mice.
# YUMM1.5 melanoma cells = experiment: YUMM1.5 melanoma tumor growth in WT or Rnf5−/− mice given mucin or inulin; type: in vivo, mouse; details: 3% mucin in drinking water or 15% inulin diet from 14 days prior to tumor inoculation
# Description: as §2
# To test this directly it was investigated whether administration of mucin to WT mice could phenocopy Rnf5^−/− mice, in terms of tumor growth, immune response and gut microbiota composition. […]
molecule,measurement,setting,value
O=C(O)CCCc1ccccc1 [4-phenylbutyrate],tumor growth,tumor growth [1],did not affect tumor growth
Clostridium clostridioforme,association of bacterial strain with tumor growth,tumor growth [2],associated with inhibition of tumor growth
inulin,infiltration of MHC-I and MHC-I on DC cells,MC-38 cells; MC-38 tumors,increase in the infiltration
same,growth of MC-38 cells,"MC-38 cells; WT C57BL/6 mice, supplemented diet from 14 days prior to inoculation",attenuated
same,tumor infiltrating immune cell phenotype,"[3]; WT mice, tumor",increased tumor infiltration of immune cells
same,transcription of immune-related genes,"[3]; shift to that seen in Rnf5−/− mice, albeit to a lower extent",induced a shift
same,communities generated in fecal cultivation,human fecal samples,generated communities similar to that of gastric mucin
same,melanoma growth,"SW1 cells; SW1 cells in Tlr4−/− C3H/HeJ mice, supplemented diet from 14 days prior to inoculation",failed to significantly attenuate melanoma growth
same,CD8+ T cells and TNF-α-producing tumor-infiltrating CD4+ T cells,SW1 cells; SW1 tumors in Tlr4−/− C3H/HeJ mice,not
same,melanoma tumor growth,YUMM1.5 melanoma cells,attenuate melanoma growth; also recorded: reduced tumor growth
same,melanoma tumor growth,YUMM1.5 melanoma cells; listed as Inulin,effective inhibition of melanoma growth
